# Laboratory results reported in article PMC12203428, “Discovery of Clonixeril as a Sub-Femtomolar Modulator of the Human STING Receptor” (ACS Central Science, 2025).
# Tested on: hSTING WT pathway (THP1 Dual KI-hSTING-R232 cells, IRF3 luciferase reporter)
# Experiment: THP-1 IRF3 luciferase inhibition assay with diABZI3 as activator
# Type: cell-based, human
# Text: To validate our initial observations that CXL has extraordinary potency for a small molecule antagonist, we extended our THP-1 cell luciferase reporter experiment by using diABZI3 as an agonist and using BBCl-amidine (a previously reported STING antagonist) as an antagonist control. , Furthermore, because the results were so unprecedented, we conducted these experiments in a different laboratory (U. Mass Chan. vs Univ. So. FL) and with different individuals performing the experiments.
# The cells were grown in RPMI 1640, 2 mM L-glutamine, 25 mM HEPES, 10% heat-inactivated fetal bovine serum, 100 μg/mL Normocin, and Pen-Strep (100 U/mL–100 μg/ mL). For selection, the cells were passaged with and without the addition of antibiotics (10 μg/mL Blasticidin and 100 μg/mL Zeocin) to the growth medium every other passage. […] The cells were counted in a cell counter to obtain a cell density of 1 × 10^6 cells/mL of the test media. […] QUANTI-Luc (InvivoGen) reagent was then diluted in 30 mL of water, 75 μL was added to each well, and luminescence was read immediately (PerkinElmer Envision 2105). The data were normalized to the DMSO only controls (without diABZI3 or 2′,3′-cGAMP), and percentage activation was calculated based on the diABZI3 or 2′,3′-cGAMP only control. […]
smiles,measurement,setting,value
"Cc1c(Cl)cccc1Nc1ncccc1C(=O)OCC(O)CO (centres unmarked) [CXL, clonixeril]",Response to diABZI3 with CXL 100 nM to 100 aM,50 nM diABZI3,inverse dose response
same,Effect of higher concentrations of CXL on diABZI3 signal,"50 nM diABZI3, Figure 2C",enhancement of the diABZI3 signal
